Here are results for two molecules from US7572600B2, “Enzymatic activities in chemokine-mediated inflammation” (Chemocentryx, Inc., priority 2004, dated 2009).

Where no end group is shown, it is not given here.

One test concerns human monocytes. The test is described as follows: Calcium mobilization in freshly isolated human monocytes. It is filed as cell-based. To be noted: for calcium mobilization: undigested chemokine or peptide, 100 nM (CCL23β up to 250 nM). As to the method:
(§1) Calcium Mobilization Assay. Cells were loaded for 1 hour with 2 μM indo-1/AM dye (Molecular Probes, Eugene, Oreg.) in culture medium, then washed with 10 ml PBS and resuspended at 10^6/ml in HBSS containing 1% FBS. Cytosolic calcium responses were determined using a Photon Technology International (Lawrenceville, N.J.) fluorimeter, with excitation at 350 nm and dual emission at 400 and 490 nm. Alternatively, cells were loaded with 5 μg/ml Fluo-4 AM dye (Molecular Probes, Eugene, Oreg.), then washed and analyzed on a Fluorometric Imaging Plate Reader 384 (FLIPR^384 Molecular Devices, Sunnyvale, Calif.), with 505 nm excitation and 530 nm emission.
(§2) Receptor signaling assay. For individual measurements, cells were loaded for 45 min at room temperature with 2 μM indo-1/AM (Invitrogen, Carlsbad Calif.) in culture medium, then washed with 10 ml PBS and resuspended at 10^6 cells/ml in HBSS containing 0.1% BSA. Cytosolic calcium levels were determined using a Photon Technology International fluorimeter (excitation at 350 nm, ratio of dual emission at 400 and 490 nm). For measuring calcium dose responses, cells were analyzed with a Fluorometric Imaging Plate Reader 384 (FLIPR^384) (Molecular Devices, Sunnyvale, Calif.). Cells were loaded for 1 hr at 37° C. with 5 μM fluo-4 in HBSS with 0.1% BSA, then washed, transferred to black-wall 96-well plates, and subsequently excited at 505 nm with emission recorded at 530 nm with a standard protocol provided by the manufacture. Cells were stimulated with agonists 20 s after the monitoring of fluorescence began. Data were analyzed and plotted in arbitrary units of fluorescence using Prism. To ensure that responses were specific to FPRL1, we utilized a selective small-molecule antagonist of human FPRL1, generated by ChemoCentryx, which was optimized from a high throughput compound library screening approach.
On the technique in general: A change in cytosolic calcium serves as a functional read-out for many receptors and channels.

Test [1] addresses T1, FPRL1 (Homo sapiens, UniProt P25090).
T1 sequence (P25090 1-351): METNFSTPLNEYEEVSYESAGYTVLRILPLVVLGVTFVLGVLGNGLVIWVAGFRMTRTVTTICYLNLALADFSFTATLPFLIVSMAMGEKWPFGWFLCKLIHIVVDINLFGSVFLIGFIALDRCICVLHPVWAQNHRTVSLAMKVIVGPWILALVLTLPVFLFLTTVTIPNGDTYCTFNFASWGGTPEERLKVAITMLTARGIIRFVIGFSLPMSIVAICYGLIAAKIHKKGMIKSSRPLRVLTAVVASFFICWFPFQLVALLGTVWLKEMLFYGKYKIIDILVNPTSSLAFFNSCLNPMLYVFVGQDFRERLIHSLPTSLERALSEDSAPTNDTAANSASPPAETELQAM
Put plainly: Receptor signaling (calcium mobilization) in L1.2-FPRL1 cells. Type of test: cell-based. Details: expressed in transfected cells. To be noted: for calcium mobilization in the FPRL1 transfectant: L1.2 cells stably expressing human FPRL1, undigested. The protocol: as §2
Since FPRL1 has been reported to interact with low affinity and/or potency with a spectrum of potential pathogenic ligands of viral, bacterial and endogenous origin, we performed comparative functional analyses to determine the precise functional domain for the SHAAGtide (FIG. 14). SHAAGtides containing N-terminal and C-terminal truncations and extensions were synthesized, and potencies for receptor signaling in L1.2-FPRL1 cells were tested. […] After removal of the N-terminal amino acid (Met) from SHAAGtide, its potency is reduced approximately 10 fold. Removal of the first two N-terminal amino acids (Met-Leu) totally abolished SHAAGtide's activity on FPRL1. Conversely, removal of the C-terminal three amino residues (AAG) from SHAAGtide had no effect on its activity on FPRL1. Removal of the C-terminal six residues (LSHAAG) reduced the peptide's potency only 3-fold. Many other purported naturally-occurring FPRL1 ligands, including serum amyloid A (SAA), beta-amyloid protein 42, lipoxin A4 and the bacterial tripeptide fMLP were tested.

Test [2] addresses T2, CCR1 (Homo sapiens, UniProt P32246).
T2 sequence (P32246 1-355): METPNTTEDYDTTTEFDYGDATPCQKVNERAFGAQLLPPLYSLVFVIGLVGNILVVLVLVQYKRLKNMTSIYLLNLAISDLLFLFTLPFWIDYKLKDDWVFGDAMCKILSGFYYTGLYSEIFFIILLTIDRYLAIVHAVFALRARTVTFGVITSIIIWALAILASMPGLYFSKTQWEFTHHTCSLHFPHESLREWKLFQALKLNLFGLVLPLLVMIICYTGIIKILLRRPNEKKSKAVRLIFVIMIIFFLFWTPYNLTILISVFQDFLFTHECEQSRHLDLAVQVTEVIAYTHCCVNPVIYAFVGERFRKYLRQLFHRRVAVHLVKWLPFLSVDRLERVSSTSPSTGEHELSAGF
The test is described as follows: Competition binding with 125I-MIP-1α on human monocytes. More on the design: endogenous in cells; host or cells: human CD14+ monocytes from buffy coats. The protocol: Binding assay. Competition binding studies were conducted using monocytes, L1.2-CCR1 or L1.2-FPRL1 cells. Cells were incubated for 3 hr at 4° C. with ^125I-MIP-1α (final concentration ˜0.05 nM) or ^125I-WKYMVm (final concentration ˜0.01 nM) in buffer (25 mM HEPES, 140 mM NaCl, 1 mM CaCl2, 5 mM MgCl2 and 0.2% BSA, adjusted to pH 7.1) in the presence of increasing amounts of unlabeled chemokine. Reactions were aspirated onto PEI-treated GF/B glass filters using a cell harvester (Packard). Filters were washed twice (25 mM HEPES, 500 mM NaCl, 1 mM CaCl2, 5 mM MgCl2, adjusted to pH 7.1). Scintillant (MicroScint-10; 35 μl) was added to the filters and counted in a Packard Topcount scintillation counter. Data were analyzed and plotted using Prism (GraphPad Software, San Diego, Calif.).

For test [3], the target named is T1, FPRL1. The test is described as follows: Competition binding with 125I-WKYMVm on human monocytes. Details: endogenous in cells; host or cells: human CD14+ monocytes from buffy coats.
Method: Binding assay. Competition binding studies were conducted using monocytes, L1.2-CCR1 or L1.2-FPRL1 cells. […] Reactions were aspirated onto PEI-treated GF/B glass filters using a cell harvester (Packard). Filters were washed twice (25 mM HEPES, 500 mM NaCl, 1 mM CaCl2, 5 mM MgCl2, adjusted to pH 7.1). Scintillant (MicroScint-10; 35 μl) was added to the filters and counted in a Packard Topcount scintillation counter. Data were analyzed and plotted using Prism (GraphPad Software, San Diego, Calif.).
Test [4] addresses T2, CCR1. The test is described as follows: Calcium mobilization in murine L1.2 cells expressing human CCR1. To be noted: L1.2 cells stably expressing human CCR1. It is filed as cell-based. More on the design: expressed in transfected cells; host or cells: murine L1.2 cells (G-418 selected transfectant). As to the method:
as §1, §2

As to MLWRRKIGPQMTLSHAAG [SHAAGtide], in the test with human monocytes, the calcium mobilization result is “equipotent to CCL23β Δ24”. Moreover, the “calcium mobilization in the FPRL1 transfectant” value at FPRL1 [1] is “fully effective”. Moreover, the “Designation and FPRL1 Activity” value on FPRL1 [1] (SHAAGtide and truncated/other variants) is “sequence; high”. Also, on CCR1 [2], the “inhibition of 125I-MIP-1α binding” value is “did not inhibit”. The IC50 (in general, the concentration that gives 50% inhibition) at FPRL1 [3] was determined as 10 nM.

B1: CCL23β Δ24: truncated form of CCL23β lacking the 24-residue N-terminal domain, beginning with the SHAAGtide insertion (protein, listed as Homo sapiens)
chain: MLWRRKIGPQMTLSHAAGFHATSADCCISYTPRSIPCSLLESYFETNSECSKPGVIFLTKKGRRFCANPSDKQVQVCMRMLKLDTRIKTRKN
Consider B1, for which the “magnitude of calcium signal versus CCL15 Δ24/leukotactin” value in the test on human monocytes (both at 100 nM) was “at least two fold higher”. The calcium mobilization result in the test with human monocytes was “particularly strong and sustained calcium profile”. Moreover, the “calcium mobilization in the FPRL1 transfectant” value with FPRL1 [1] was “fully effective”. The “inhibition of 125I-MIP-1α binding” value in the test with CCR1 [2] was “moderate competitors”. For the same molecule, the “calcium mobilization in the CCR1 transfectant” value with CCR1 [4] is “effective at inducing calcium mobilization”.
